# Patent US7507727B2, “Substituted quinobenzoxazine analogs and methods of using thereof” (Cylene Pharmaceuticals, Inc., priority 2003, dated 2009)
# Molecular target: c-Myc template DNA (c-myc quadruplex)
# Test: Quadruplex binding / stop assay (Taq polymerase arrest, capillary electrophoresis)
# Details: read-out: S DATA; Table 1D, stop assay data
row,IC50,Structure (SMILES)
1,10 µM,CN1CCCC1CCNC(=O)c1cn2c3c(c(N4CCN(C(=O)OC(C)(C)C)CC4)c(F)cc3c1=O)Oc1cc(Cl)ccc1-2 (centres unmarked) [compound 1819]
2,0.75 µM,CC1CCN(CCCNc2c(F)cc3c(=O)c(C(=O)NCCC4CCCN4C)cn4c3c2Oc2cc3ccccc3cc2-4)CC1 (centres unmarked) [compound 1501]
3,> 15 µM,CC(C)(C)OC(=O)NC1CCN(C(=O)c2cn3c4c(c(NCCN5CCCC5)c(F)cc4c2=O)Oc2ccccc2-3)C1 (centres unmarked) [compound 1595]
4,1.75 µM,CN1CCN(CCCNc2ccc3c(=O)c(C(=O)NCCN4CCOCC4)cn4c3c2Oc2cc3ccccc3cc2-4)CC1 [compound 1556]
5,3.3 µM,CN1CCCC1CCNC(=O)c1cn2c3c(c(F)c(F)cc3c1=O)Oc1cc3ccccc3cc1-2 (centres unmarked) [compound 1739]
6,1.75 µM,CN1CCCC1CCNC(=O)c1cn2c3c(c(N(C)C4CCN(Cc5ccccc5)CC4)c(F)cc3c1=O)Oc1cc3ccccc3cc1-2 (centres unmarked) [compound 1487]
7,> 15 µM,CN1CCCC1CCNC(=O)c1cn2c3c(c(NCCN4CCOCC4)ccc3c1=O)Oc1cc3ccccc3cc1-2 (centres unmarked) [compound 1547]
8,4.7 µM,CN1CCC[C@H]1CCNC(=O)c1cn2c3c(c(SCCc4cnccn4)c(F)cc3c1=O)Oc1cc3ccccc3cc1-2 [compound 1770]
9,6.6 µM,CC(C)N1CCN(c2c(F)cc3c(=O)c(C(=O)NCCN4CCCC4)cn4c3c2Oc2ccc(Cl)cc2-4)CC1 [compound 1798]
10,5.3 µM,N#Cc1ccc2c(c1)-n1cc(C(=O)NCCN3CCOCC3)c(=O)c3cc(F)c(N4CCC(N)C4)c(c31)O2 (centres unmarked) [compound 1793]
11,3 µM,CCN(CC)CCCC(C)NC(=O)c1cn2c3c(c(N4CCC(c5cnccn5)C4)c(F)cc3c1=O)Oc1cc3ccccc3cc1-2 (centres unmarked) [compound 1719]
12,> 15 µM,CCOC(=O)c1cn2c3c(c(N4CCC(c5cnccn5)C4)c(F)cc3c1=O)Oc1ccc(C#N)cc1-2 (centres unmarked) [compound 1775]
13,> 15 µM,O=C(NCCN1CCCC1)c1cn2c3c(c(NCCN4CCCC4)c(F)cc3c1=O)Oc1ccccc1-2 [compound 1597]
14,> 15 µM,NC1CCN(c2c(F)cc3c(=O)c(C(=O)NCC4CC4)cn4c3c2Oc2cc3ccccc3cc2-4)C1 (centres unmarked) [compound 1700]
15,> 15 µM,CC(C)N1CCN(c2c(F)cc3c(=O)c(C(=O)NCCCN4CCOCC4)cn4c3c2Oc2cc(Cl)ccc2-4)CC1 [compound 1792]
16,> 15 µM,CN1CCN(C(=O)c2cn3c4c(c(NCCN5CCCC5)c(F)cc4c2=O)Oc2ccccc2-3)CC1 [compound 1602]
17,14.1 µM,O=c1c2cn3c4ccccc4oc4c(N5CCC(c6cnccn6)C5)c(F)cc(c2nn1CCN1CCCC1)c43 (centres unmarked) [compound 1772]
18,> 15 µM,CC1(C)CC(NC(=O)c2cn3c4c(c(NCCN5CCOCC5)ccc4c2=O)Oc2cc4ccccc4cc2-3)CC(C)(C)N1 [compound 1549]
19,> 15 µM,CCN(CC)CCCC(C)NC(=O)c1cn2c3c(c(N4CC5CCCNC5C4)c(F)cc3c1=O)Oc1ccccc1-2 (centres unmarked) [compound 1729]
20,1.5 µM,O=C(NCCN1CCCC1)c1cn2c3c(c(N4CCC(c5cnccn5)C4)ccc3c1=O)Oc1cc3ccccc3cc1-2 (centres unmarked) [compound 1723]
21,0.75 µM,CN(C)CCCCNC(=O)c1cn2c3c(c(N4CCC(N)C4)c(F)cc3c1=O)Oc1ccccc1-2 (centres unmarked) [compound 1624]
22,> 15 µM,CC1(C)CC(NC(=O)c2cn3c4c(c(NCCN5CCCC5)c(F)cc4c2=O)Oc2ccccc2-3)CC(C)(C)N1 [compound 1603]
23,1.75 µM,COc1ccc2c(CCNc3c(F)cc4c(=O)c(C(=O)NCCC5CCCN5C)cn5c4c3Oc3cc4ccccc4cc3-5)c[nH]c2c1 (centres unmarked) [compound 1667]
24,0.75 µM,CN1CCCC1CCNC(=O)c1cn2c3c(c(NCCN4CCCCC4)c(F)cc3c1=O)Oc1cc3ccccc3cc1-2 (centres unmarked) [compound 1488]
25,1.75 µM,COc1ccc2[nH]cc(CCNC(=O)c3cn4c5c(c(N6CCC(N)C6)c(F)cc5c3=O)Oc3cc5ccccc5cc3-4)c2c1 (centres unmarked) [compound 1699]
26,4.2 µM,CN1CCCC1CCNC(=O)c1cn2c3c(c(NCc4ccco4)c(F)cc3c1=O)Oc1cc3ccccc3cc1-2 (centres unmarked) [compound 1755]
27,> 15 µM,CC(=O)N1CCN(c2c(F)cc3c(=O)c(C(=O)NCCC4CCCN4C)cn4c3c2Oc2cc(Cl)ccc2-4)CC1 (centres unmarked) [compound 1807]
28,10 µM,CN1CCCC1CCNC(=O)c1cn2c3c(c(N4CCC(c5ccccc5F)C4)c(F)cc3c1=O)Oc1cc3ccccc3cc1-2 (centres unmarked) [compound 1771]
29,> 15 µM,O=C(NCCN1CCCC1)c1cn2c3c(c(NCC4CCCO4)c(F)cc3c1=O)Oc1cc(Cl)ccc1-2 (centres unmarked) [compound 1794]
30,10 µM,O=C(NCCN1CCCC1)c1cn2c3c(c(N4CCN(C(=O)C(F)(F)F)CC4)c(F)cc3c1=O)Oc1cc(Cl)ccc1-2 [compound 1821]

# Same assay, conditions: read-out: Stop Data c-Myc μM; concentration at which 50% of the DNA was arrested (arrested:full-length 1:1)
row,IC50,Structure (SMILES)
1,5 µM,CN1CCCC1CCNC(=O)c1cn2c3c(c(NCC4CCCO4)c(F)cc3c1=O)Oc1cc3ccccc3cc1-2 (centres unmarked) [compound 1471]
2,0.75 µM,CCOC(CCCNc1c(F)cc2c(=O)c(C(=O)NCCC3CCCN3C)cn3c2c1Oc1cc2ccccc2cc1-3)OCC (centres unmarked) [compound 463]
3,0.53 µM,CN(C)CCCCNc1c(F)cc2c(=O)c(C(=O)NCCCN3CCN(C)CC3)cn3c2c1Oc1c-3ccc2ccccc12 [compound 478]
4,2.5 µM,CN1CCN(CCCNC(=O)c2cn3c4c(c(NCCCN5CCOCC5)c(F)cc4c2=O)Oc2cc4ccccc4cc2-3)CC1 [compound 49]
5,2.5 µM,NCc1cn2c3c(c(N4CCC(N)C4)c(F)cc3c1=O)Oc1cc3ccccc3cc1-2 (centres unmarked) [compound 99]
6,1 µM,N=C(N)NCCCCNC(=O)c1cn2c3c(c(NCCCN4CCOCC4)c(F)cc3c1=O)Oc1cc3ccccc3cc1-2 [compound 330]
7,1.75 µM,CN(C)CCCCNC(=O)c1cn2c3c(c(N4CC[C@@H](NC(=O)CCN5CCOCC5)C4)c(F)cc3c1=O)Oc1cc3c(cc1-2)oc1ccccc13 [compound 176]
8,0.75 µM,CN1CCN(CCCNC(=O)c2cn3c4cc5c(cc4oc4c(N6CC[C@H](NC(=O)OC(C)(C)C)C6)c(F)cc(c2=O)c43)c(=O)c2ccccc25)CC1 [compound 427]
9,0.75 µM,CN1CCN(CCCNc2c(F)cc3c(=O)c(C(=O)NCCN4CCCC4)cn4c3c2Oc2cc3ccccc3cc2-4)CC1 [compound 395]
10,1.75 µM,CN1CCCC1CCNc1c(F)cc2c(=O)c(C(=O)NCCCN3CCOCC3)cn3c2c1Oc1cc2ccccc2cc1-3 (centres unmarked) [compound 122]
11,0.75 µM,NCCCNC(=O)c1cn2c3c(c(N4CCC(N)C4)c(F)cc3c1=O)Oc1cc3ccccc3cc1-2 (centres unmarked) [compound 466]
12,0.75 µM,NC1CCN(c2c(F)cc3c(=O)c(C(=O)NCCCCN4CCCC4)cn4c3c2Oc2cc3ccccc3cc2-4)C1 (centres unmarked) [compound 431]
13,2.5 µM,O=C(O)c1cn2c3c(c(NCCN4CCCC4)c(F)cc3c1=O)Oc1cc3ccccc3cc1-2 [compound 2]
14,1.75 µM,CN(C)CCCCNC(=O)c1cn2c3c(c(NCCCN4CCOCC4)c(F)cc3c1=O)Oc1c-2ccc2ccccc12 [compound 129]
15,2.5 µM,CN1CCN(c2c(F)cc3c(=O)c(C(=O)N4CCC(N)C4)cn4c5cc6c(=O)c7ccccc7c(=O)c6cc5oc2c34)CC1 (centres unmarked) [compound 97]
16,1.75 µM,CN1CCCC1CCNC(=O)c1cn2c3c(c(NC(=O)C4CCCNC4)c(F)cc3c1=O)Oc1cc3ccccc3cc1-2 (centres unmarked) [compound 251]
17,0.75 µM,CN1CCCC1CCNC(=O)c1cn2c3cc4c(cc3oc3c(NCCCN5CCOCC5)c(F)cc(c1=O)c32)c(=O)c1ccccc14 (centres unmarked) [compound 420]
18,2.5 µM,CN(C)CCCCNc1c(F)cc2c(=O)c(C(=O)Nc3ccc(N(C)C)cc3)cn3c2c1Oc1c-3ccc2ccccc12 [compound 76]

row,IC50,Structure (SMILES)
1,1.75 µM,CN1CCN(CCCNC(=O)c2cn3c4c(c(NCCCN5CCN(C)CC5)c(F)cc4c2=O)Oc2cc4c(cc2-3)oc2ccccc24)CC1 [compound 151]
2,0.58 µM,CN1CCCC1CCNc1c(F)cc2c(=O)c(C(=O)NCCCN3CCOCC3)cn3c2c1Oc1c-3ccc2ccccc12 (centres unmarked) [compound 476]
3,0.75 µM,CN1CCCC1CCNC(=O)c1cn2c3c(c(NCCN4CCCC4)ccc3c1=O)Oc1cc3ccccc3cc1-2 (centres unmarked) [compound 446]
4,1.75 µM,O=C(O)c1cn2c3c(c(NCCCN4CCOCC4)c(F)cc3c1=O)Oc1cc3c(cc1-2)-c1ccccc1C3 [compound 6]
5,1.75 µM,CN(C)CCCNC(=O)c1cn2c3c(c(N4CCC(N)C4)c(F)cc3c1=O)Oc1cc3ccccc3cc1-2 (centres unmarked) [compound 246]
6,1.75 µM,CN1CCCC1CCNc1c(F)cc2c(=O)c(C(=O)NCCCn3ccnc3)cn3c2c1Oc1c-3ccc2ccccc12 (centres unmarked) [compound 135]
7,2.5 µM,O=C(NCCCn1ccnc1)c1cn2c3c(c(NCCCn4ccnc4)c(F)cc3c1=O)Oc1cc3ccccc3cc1-2 [compound 40]
8,1.75 µM,CN1CCCC1CCNC(=O)c1cn2c3c(c(NC4CCN(Cc5ccccc5)CC4)c(F)cc3c1=O)Oc1cc3ccccc3cc1-2 (centres unmarked) [compound 258]
9,2.5 µM,N[C@@H]1CCN(C(=O)c2cn3c4c(c(N5CC[C@@H](N)C5)c(F)cc4c2=O)Oc2c-3ccc3ccccc23)C1 [compound 78]
10,0.25 µM,CN(C)CCCCNC(=O)c1cn2c3c(c(N4CC[C@@H](N)C4)c(F)cc3c1=O)Oc1cc3ccccc3cc1-2 [compound 567]
11,0.73 µM,CN1CCC[C@H]1CCNC(=O)c1cn2c3c(c(N4CCC(c5cnccn5)C4)c(F)cc3c1=O)Oc1cc3ccccc3cc1-2 (some centres unmarked) [compound 469]
12,1.75 µM,CN(C)CCCCNC(=O)c1cn2c3c(c(NCCCN4CCN(C)CC4)c(F)cc3c1=O)Oc1cc3c(cc1-2)oc1ccccc13 [compound 153]
13,1 µM,O=C(O)c1cn2c3cc4c(cc3oc3c(F)c(F)cc(c1=O)c32)c(=O)c1ccccc14 [compound 320]
14,2.5 µM,CC(C)(C)OC(=O)N[C@@H]1CCN(C(=O)c2cn3c4c(c(N5CC[C@@H](NC(=O)OC(C)(C)C)C5)c(F)cc4c2=O)Oc2cc4ccccc4cc2-3)C1 [compound 65]
15,1.75 µM,O=C(Nc1nc2ccccc2s1)c1cn2c3c(c(NCCN4CCCC4)c(F)cc3c1=O)Oc1ccccc1-2 [compound 118]
16,1.8 µM,N[C@@H]1CCN(c2c(F)cc3c(=O)c(C(=O)NCCCN4CCOCC4)cn4c3c2Oc2c-4ccc3ccccc23)C1 [compound 103]
17,1.75 µM,Nc1c(F)c(N2CCC(N)C2)c2c3c1c(=O)c(C(=O)NCCN1CCCC1)cn3-c1cc3ccccc3cc1O2 (centres unmarked) [compound 233]
